Data reported in patent US20260234211A1, “POLYPEPTIDE HAVING MODIFIED STRUCTURE AND USE THEREOF” (Guangdong Raynovent Biotech Co., Ltd., priority 2023, published 2026).
Read-outs that look alike come from different tables or passages of the source. Blank lines part the entries; values can stand above or below the compound they belong to. Numbered stars: 1 amine (or outer) side, 2 acyl side, 3 side chain; on linkers, the order of the positions; unused ones are H or OH. Bridge positions count the residues as written; N and C are the ends. Square brackets hold non-standard residues; d marks the D form. Peptide text beside a SMILES is read from it. X1 = O=C(O)CCCCCCCCCCCCCCCCCCC(=O)N[C@@H](CCC(=O)NCCOCCOCC(=O)NCCCC[C@H](N[*:2])C(=O)[*:1])C(=O)O; αMeL = CC(C)C[C@](C)(N)C(=O)O; Aib = CC(C)(N)C(=O)O

What was measured:
[1] = molecular target: T1, GCGR (Homo sapiens, UniProt P47871); assay: In vitro GCGR agonistic activity test (cAMP, HEK293 cell line); format: cell-based
T1 construct: host or cells: HEK293
Method: (§1) The cell lines were constructed by Pharmaron Inc. See details in the table below.
(§2) The test compounds were diluted at a 5-fold dilution factor in 10 points, starting from an initial concentration of 200 nM.
(§3) 1) The cell lines were cultured respectively in complete medium at 37° C. and 5% CO2.
2) After digestion with TrypLE, the cells were re-suspended in experimental buffer respectively, and inoculated in a CulturPlate-384 cell culture plate at a density of 2000 cells/well and at a volume of 15 μL/well.
(§4) 1) Eu-cAMP tracer was freeze-thawed and diluted 50 fold with detection buffer; and Ulight-anti-cAMP was freeze-thawed and diluted 150 fold with detection buffer.
2) 5 μL of the test compounds were added respectively into experimental wells of the CulturPlate-384 cell culture plate, which was centrifuged at 200 g for 30 s, and left for stand at 37° C. for 30 min.
(§5) 3) 10 μL of Eu-cAMP tracer was added and then 10 μL of Uligh-anti-cAMP was added into experimental wells respectively.
(§6) 4) The reaction plate was centrifuged at 200 g at room temperature for 30 s and left for stand at 25° C. for 1 h.
5) Envision 2105 was used to collect data, with excitation light at 340 nm and emission light at 665 nm and 615 nm.

[2] = molecular target: T2, GLP-1R (Homo sapiens, UniProt P43220); assay: In vitro GLP-1R agonistic activity test (cAMP, HEK293 cell line); format: cell-based
T2 construct: host or cells: HEK293
Method: as §1, §2, §3, §4, §5, §6

[3] = Metabolic stability in human kidney S9; format: in vitro ADME; conditions: human, s9
Method: The metabolic stability of the compounds in human kidney was evaluated to determine whether the drugs would be degraded by metabolic enzymes in the kidney to affect the efficacies and pharmacokinetics. 1. Relevant solutions were formulated. 2. a) With cofactors (NADPH & UDPGA): NADPH and UDPGA were added during the incubation. […] H2O was added into the culture solution. The final concentration of KS9 Fractions was 1 mg/mL. The mixture was pre-heated at 37° C. for 10 min. […] In this study, 7-hydroxy-coumarin and Raloxifene were used as the positive control. The final concentration of the positive control compounds was 0.2 μM, and the final concentration of the test compound was 1 μM. The culture solution was incubated in water bath at 37° C. 4. At 0.5, 5, 15, 30 and 60 min, volume aliquots were taken from the reaction solution and the reaction was stopped by adding acetonitrile. The samples were centrifuged for 30 min. The supernatant was taken and mixed with ultrapure water for subsequent LC-MS/MS analysis. 5. Data analysis: All calculation was conducted using Microsoft Excel. Peak areas were determined and slope values were calculated based on the extracted ion chromatograms.

[4] = Pharmacokinetic properties in Cynomolgus macaques; conditions: cynomolgus monkey, in vivo, male cynomolgus macaques, plasma
Method: To test the pharmacokinetic profiles of the compounds in Cynomolgus macaques.
Non-juvenile male cynomolgus macaques were used for experiment, 3 cynomolgus macaques for each compound. Whole blood was collected at time points of 1 h, 2 h, 4 h, 8 h, 16 h, 24 h, 48 h, 72 h, 120 h, 168 h and 240 h after administration, to prepare plasma. The drug concentration was analyzed by LC-MS/MS method, and the pharmacokinetic parameters were calculated using Phoenix WinNonlin software.

[5] = cAMP, HEK293 cells expressing GCGR, read-out: GCG EC50
[6] = cAMP, HEK293 cells expressing GLP-1R, read-out: GLP-1 EC50

T2 sequence (P43220 24-463, species assumed): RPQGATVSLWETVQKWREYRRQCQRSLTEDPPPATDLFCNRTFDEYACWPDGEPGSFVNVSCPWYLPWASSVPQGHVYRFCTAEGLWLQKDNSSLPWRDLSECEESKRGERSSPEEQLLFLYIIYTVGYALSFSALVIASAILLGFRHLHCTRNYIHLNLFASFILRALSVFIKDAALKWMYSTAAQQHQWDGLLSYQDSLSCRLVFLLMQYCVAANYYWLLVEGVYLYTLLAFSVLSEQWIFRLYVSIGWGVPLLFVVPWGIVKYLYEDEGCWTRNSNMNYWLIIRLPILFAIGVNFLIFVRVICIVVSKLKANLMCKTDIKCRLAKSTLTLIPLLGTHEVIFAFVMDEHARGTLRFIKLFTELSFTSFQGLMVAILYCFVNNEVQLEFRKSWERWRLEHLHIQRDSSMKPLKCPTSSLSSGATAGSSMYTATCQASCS
T1 sequence (P47871 26-477, species assumed): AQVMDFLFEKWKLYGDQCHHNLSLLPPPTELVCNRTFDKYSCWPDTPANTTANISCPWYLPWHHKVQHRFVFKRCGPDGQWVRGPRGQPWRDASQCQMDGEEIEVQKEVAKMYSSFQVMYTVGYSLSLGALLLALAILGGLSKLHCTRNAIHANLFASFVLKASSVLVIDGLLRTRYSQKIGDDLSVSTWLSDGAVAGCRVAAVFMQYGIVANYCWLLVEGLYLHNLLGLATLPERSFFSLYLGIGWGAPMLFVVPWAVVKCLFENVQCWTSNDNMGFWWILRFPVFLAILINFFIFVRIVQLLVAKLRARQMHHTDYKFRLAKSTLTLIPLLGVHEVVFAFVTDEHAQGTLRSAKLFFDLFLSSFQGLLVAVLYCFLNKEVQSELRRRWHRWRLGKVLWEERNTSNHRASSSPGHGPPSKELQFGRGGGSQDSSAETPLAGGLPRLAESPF

EC50 [1, 5]: 25 pM | EC50 [2, 6]: 1 pM
SMILES: CC[C@H](C)[C@H](NC(=O)[C@H](Cc1ccccc1)NC(=O)[C@H](C)NC(=O)C(C)(C)NC(=O)[C@H](CCC(N)=O)NC(=O)[C@H](C)NC(=O)[C@@H]1CCCCNC(=O)CN(C(=O)COCCOCCNC(=O)CC[C@H](NC(=O)CCCCCCCCCCCCCCCCCCC(=O)O)C(=O)O)CC(=O)NCCCC[C@H](NC(=O)[C@](C)(CC(C)C)NC(=O)[C@@H](NC(=O)[C@H](CO)NC(=O)[C@H](Cc2ccc(O)cc2)NC(=O)[C@H](CC(=O)O)NC(=O)[C@H](CO)NC(=O)[C@@H](NC(=O)[C@](C)(Cc2ccccc2)NC(=O)[C@@H](NC(=O)CNC(=O)[C@H](CCC(N)=O)NC(=O)C(C)(C)NC(=O)[C@@H](N)Cc2ccc(O)cc2)[C@@H](C)O)[C@@H](C)O)[C@@H](C)CC)C(=O)N[C@@H](CC(=O)O)C(=O)N[C@@H](CCCCN)C(=O)N1)C(=O)N[C@@H](CCC(=O)O)C(=O)N[C@@H](Cc1ccc(O)cc1)C(=O)N[C@@H](CC(C)C)C(=O)N[C@@H](CC(C)C)C(=O)N[C@@H](CCCCN)C(=O)NCC(=O)NCC(=O)N1CCC[C@H]1C(=O)N[C@@H](CO)C(=O)N[C@@H](CO)C(=O)NCC(=O)N[C@@H](C)C(=O)N1CCC[C@H]1C(=O)N1CCC[C@H]1C(=O)N1CCC[C@H]1C(=O)N[C@@H](CO)C(N)=O [Example 51, YAibQGT α-MeFTSDY SIα- MeL^1KD K^1KAQAib AFIEY LLKGG PSSGA PPPS-NH2 (SEQ ID NO: 43)]

EC50 [1, 5]: 25 pM | EC50 [2, 6]: 7 pM
SMILES: CC[C@H](C)[C@H](NC(=O)[C@H](Cc1ccccc1)NC(=O)[C@H](C)NC(=O)C(C)(C)NC(=O)[C@H](CCC(N)=O)NC(=O)[C@H](C)NC(=O)[C@@H]1CCCCNC(=O)CN(C(=O)COCCOCCNC(=O)CC[C@H](NC(=O)CCCCCCCCCCCCCCCCCCC(=O)O)C(=O)O)CC(=O)NCCCC[C@H](NC(=O)[C@](C)(CC(C)C)NC(=O)[C@@H](NC(=O)[C@H](CO)NC(=O)[C@H](Cc2ccc(O)cc2)NC(=O)[C@H](CC(=O)O)NC(=O)[C@H](CO)NC(=O)[C@@H](NC(=O)[C@H](Cc2ccccc2)NC(=O)[C@@H](NC(=O)CNC(=O)[C@H](CCC(N)=O)NC(=O)C(C)(C)NC(=O)[C@@H](N)Cc2ccc(O)cc2)[C@@H](C)O)[C@@H](C)O)[C@@H](C)CC)C(=O)N[C@@H](CC(=O)O)C(=O)N[C@@H](CCCCN)C(=O)N1)C(=O)N[C@@H](CCC(N)=O)C(=O)N[C@@H](Cc1ccc(O)cc1)C(=O)N[C@@H](CC(C)C)C(=O)N[C@@H](CC(C)C)C(=O)N[C@@H](CCC(=O)O)C(=O)NCC(=O)NCC(=O)N1CCC[C@H]1C(=O)N[C@@H](CO)C(=O)N[C@@H](CO)C(=O)NCC(=O)N[C@@H](C)C(=O)N1CCC[C@H]1C(=O)N1CCC[C@H]1C(=O)N1CCC[C@H]1C(=O)N[C@@H](CO)C(N)=O [Example 42, YAibQGT FTSDY SIα- MeL^1KD K^1KAQAib AFIQY LLEGG PSSGA PPPS-NH2 (SEQ ID NO: 39)]

SMILES: CC[C@H](C)[C@H](NC(=O)[C@H](Cc1ccccc1)NC(=O)[C@@H]1CCC(=O)N[C@@H](CCCCNC(=O)COCCOCCNC(=O)CC[C@H](NC(=O)CCCCCCCCCCCCCCCCCCC(=O)O)C(=O)O)C(=O)NCCCC[C@H](NC(=O)[C@H](CCCCN)NC(=O)[C@H](CC(=O)O)NC(=O)[C@H](CC(C)C)NC(=O)[C@](C)(CC(C)C)NC(=O)[C@@H](NC(=O)[C@H](CO)NC(=O)[C@H](Cc2ccc(O)cc2)NC(=O)[C@H](CC(=O)O)NC(=O)[C@H](CO)NC(=O)[C@@H](NC(=O)[C@H](Cc2ccccc2)NC(=O)[C@@H](NC(=O)CNC(=O)[C@H](CCC(N)=O)NC(=O)C(C)(C)NC(=O)[C@@H](N)Cc2ccc(O)cc2)[C@@H](C)O)[C@@H](C)O)[C@@H](C)CC)C(=O)N[C@@H](C)C(=O)N[C@@H](CCC(N)=O)C(=O)NC(C)(C)C(=O)N1)C(=O)N[C@@H](CCC(=O)O)C(=O)N[C@@H](Cc1ccc(O)cc1)C(=O)N[C@@H](CC(C)C)C(=O)N[C@@H](CC(C)C)C(=O)N[C@@H](CCC(=O)O)C(=O)NCC(=O)NCC(=O)N1CCC[C@H]1C(=O)N[C@@H](CO)C(=O)N[C@@H](CO)C(=O)NCC(=O)N[C@@H](C)C(=O)N1CCC[C@H]1C(=O)N1CCC[C@H]1C(=O)N1CCC[C@H]1C(=O)N[C@@H](CO)C(N)=O [Example 10, YAibQGT FTSDY SIα- MeLLD K^1KAQAib ^1EFIEY LLEGG PSSGA PPPS-NH2 (SEQ ID NO: 16)] (H-Y[Aib]QGTFTSDYSI[αMeL]LDKKAQ[Aib]EFIEYLLEGGPSSGAPPPS-NH2; linker 17-21 via X1 (inferred); N-terminus assumed)
half-life at 1 μM [3]: > 3.08 h | microsomal CLint at 1 μM [3]: < 3.75 µL/min/mg | EC50 [2, 6]: 9 pM

SMILES: CC[C@H](C)[C@H](NC(=O)[C@H](Cc1ccccc1)NC(=O)[C@H](C)NC(=O)C(C)(C)NC(=O)[C@H](CCC(N)=O)NC(=O)[C@H](C)NC(=O)[C@@H]1CCCCNC(=O)CN(C(=O)COCCOCCNC(=O)[C@@H](N)CCCCNC(=O)CC[C@H](NC(=O)CCCCCCCCCCCCCCCCCCC(=O)O)C(=O)O)CC(=O)NCCCC[C@H](NC(=O)[C@](C)(CC(C)C)NC(=O)[C@@H](NC(=O)[C@H](CO)NC(=O)[C@H](Cc2ccc(O)cc2)NC(=O)[C@H](CC(=O)O)NC(=O)[C@H](CO)NC(=O)[C@@H](NC(=O)[C@H](Cc2ccccc2)NC(=O)[C@@H](NC(=O)CNC(=O)[C@H](CCC(N)=O)NC(=O)C(C)(C)NC(=O)[C@@H](N)Cc2ccc(O)cc2)[C@@H](C)O)[C@@H](C)O)[C@@H](C)CC)C(=O)N[C@@H](CC(=O)O)C(=O)N[C@@H](CCCCN)C(=O)N1)C(=O)N[C@@H](CCC(=O)O)C(=O)N[C@@H](Cc1ccc(O)cc1)C(=O)N[C@@H](CC(C)C)C(=O)N[C@@H](CC(C)C)C(=O)N[C@@H](CCC(=O)O)C(=O)NCC(=O)NCC(=O)N1CCC[C@H]1C(=O)N[C@@H](CO)C(=O)N[C@@H](CO)C(=O)NCC(=O)N[C@@H](C)C(=O)N1CCC[C@H]1C(=O)N1CCC[C@H]1C(=O)N1CCC[C@H]1C(=O)N[C@@H](CO)C(N)=O [Example 52, YAibQGT FTSDY SIα- MeL^1KD K^1KAQAib AFIEY LLEGG PSSGA PPPS-NH2 (SEQ ID NO: 24)]
AUC(0-t) ([4]; read-out: AUC0-240 h): 5.23 µM·h | AUC(0-inf) ([4]; read-out: AUCINF): 6.61 µM·h | Cmax ([4]; read-out: Cmax): 36.2 nM | half-life ([4]; read-out: T1/2 (converted)): 97.8 h | Tmax ([4]; read-out: Tmax): 29.3 h | EC50 [1]: 25 pM | EC50 [2]: 3 pM
